Consider 14 molecules from patent publication US4672054A, “Process for the preparation of angiotensin-II analogues substituted in the 1-, 5- and 8- positions” (Richter Gedeon Vegyeszeti Gyar Rt., priority 1984, dated 1987).

Read-outs that look alike come from different tables or passages of the source. Where a SMILES comes first, the peptide text is derived from it. [ ]: non-standard residue; d: D form. The star is where a group is joined. Gly(cPent) = N[C@H](C(=O)O)C1CCCC1; Chg = N[C@H](C(=O)O)C1CCCCC1; Lac = C[C@H](O)C(=O)O; Glycolyl = O=C(CO)*; Sar = CNCC(=O)O

The subject of data set [1] is isolated rabbit aorta vessel preparate. It counts as cell-based. Here is the method: (§1) The octapeptides of the formula (I) are purified in a manner known per se, preferably by cellulose ion exchange chromatography. As a result, compounds are generally obtained as lyophilized powders, which can be converted into the corresponding acid addition salts or complexes. The inhibiting effect of the compounds of the formula (I) on the aldosterone production and vasoconstriction was tested in in vitro experiments.
In the latter test the inhibition of vasoconstriction induced by AII is measured on isolated rabbit aorta vessel preparate [J. Pharmacol. Exp. Ther., 108, 129 (1953)].

The test system of data set [2] is aldosterone production. It counts as cell-based. The protocol: as §1
The subject of data set [3] is awake rats. As to the kind of experiment: hypotensive activity in vivo on awake rats (modified method by Pals), AII challenge. Further details: species or system rat. The note with it: peptide 1 mg/kg subcutaneously, 1.0 μg/kg AII intravenously from the fifth minute over three hours. The protocol:
The hypotensive activity of the new compounds was tested in vivo on awake rats, according to the modified method by Pals [Circ. Res. 29, 664 (1971)].
The results are illustrated in FIG. 1.
At first a dose--effect curve was registered for AII on rats. The peptides were administered subcutaneously, in 1 mg/kg doses. In the fifth minute after administration and repeatedly in the next three hours 1.0 μg/kg of AII was added intravenously. The statistical evalulation was performed by variancy analysis.

Data set [4] relates to awake rats. As to the kind of experiment: temporary (initial) hypertensive activity on awake rats. It counts as in vivo, rat. The note with it: administered into the jugular vein every 20 minutes. The protocol:
The temporary hypertensive activity of the AII analogues was tested also on awake rats. AII analogues were administered into the jugular vein in every 20 minutes. The results were evaluated by variancy analysis. The comparative results obtained on [Sar^1, Chg^5, Lac^8 ]-AII are shown on FIG. 2.

For data set [5], the system named is aldosterone release. The note with it: Eur. J. Clin. Pharm., 23, 7 (1982); cited from earlier work.
The conditions of data set [6]: Eur. J. Clin. Pharm., 23, 7 (1982); cited from earlier work.

With `CC(C)[C@H](NC(=O)[C@H](CCCNC(=N)N)NC(=O)CO)C(=O)N[C@@H](Cc1ccc(O)cc1)C(=O)N[C@H](C(=O)N[C@@H](Cc1c[nH]cn1)C(=O)N1CCC[C@H]1C(=O)O[C@@H](C)C(=O)O)C1CCCCC1` [HOAc^1, CHg^5, Lac^8 --AII] (Glycolyl-RVY[Chg]HP[Lac]-OH), the “vasoconstriction inhibition, pA2” value in data set [1] was determined as 9.53. Besides, the “inhibition of aldosterone production pA2” value in data set [2] worked out at 8.614.
For the molecule `CC(C)[C@H](NC(=O)[C@H](CCCNC(=N)N)NC(=O)[C@H](C)O)C(=O)N[C@@H](Cc1ccc(O)cc1)C(=O)N[C@H](C(=O)N[C@@H](Cc1c[nH]cn1)C(=O)N1CCC[C@H]1C(=O)O[C@@H](C)C(=O)O)C1CCCC1` [Lac^1, Cpg^5, Lac^8 --AII] (H-[Lac]RVY[Gly(cPent)]HP[Lac]-OH), the “vasoconstriction inhibition, pA2” value in data set [1] is listed as 8.52. The “inhibition of aldosterone production pA2” value in data set [2] was 8.392.
Take `CC[C@H](C)[C@H](NC(=O)[C@@H]1CCCN1C(=O)[C@H](Cc1c[nH]cn1)NC(=O)[C@@H](NC(=O)[C@H](Cc1ccc(O)cc1)NC(=O)[C@@H](NC(=O)[C@H](CCCNC(=N)N)NC(=O)CON)C(C)C)[C@@H](C)CC)C(=O)O` [OGly^1, Ile^8 --AII, reference compound]: the “inhibition of aldosterone production pA2” value in data set [2] amounted to 7.94.
For `CNCC(=O)N[C@@H](CCCNC(=N)N)C(=O)N[C@H](C(=O)N[C@@H](Cc1ccc(O)cc1)C(=O)N[C@H](C(=O)N[C@@H](Cc1c[nH]cn1)C(=O)N1CCC[C@H]1C(=O)N[C@@H](C)C(=O)O)C1CCCCC1)C(C)C` [Sar^1, Chg^5, Ala^8 --AII, Sar^1, Chg^5, Ala^8 -AII], the “vasoconstriction inhibition, pA2” value in data set [1] is on record as 11.18. The “inhibition of aldosterone production pA2” value in data set [2] is 9.981. Further, in data set [3], the “duration of hypotensive activity compared with Saralasin (FIG. 1)” value is “signicantly more prolonged hypotensive activity than Saralasin”.
With `CNCC(=O)N[C@@H](CCCN=C(N)N)C(=O)N[C@H](C(=O)N[C@@H](Cc1ccc(O)cc1)C(=O)N[C@H](C(=O)N[C@@H](Cc1c[nH]cn1)C(=O)N1CCC[C@H]1C(=O)O[C@@H](C)C(=O)O)C1CCCCC1)C(C)C` [Sar^1, Chg^5, Lac^8 --AII] (H-[Sar]RVY[Chg]HP[Lac]-OH), in data set [4], the “initial hypertensive activity compared with Saralasin (FIG. 2)” value is on record as “significantly lower initial hypertensive activity than Salarasine”.
As to `CNCC(=O)N[C@@H](CCCNC(=N)N)C(=O)N[C@H](C(=O)N[C@@H](Cc1ccc(O)cc1)C(=O)N[C@H](C(=O)N[C@@H](Cc1c[nH]cn1)C(=O)N1CCC[C@H]1C(=O)O[C@@H](C)C(=O)O)C1CCCCC1)C(C)C` [Sar^1, Chg^5, Lac^8 --AII] (H-[Sar]RVY[Chg]HP[Lac]-OH), the “vasoconstriction inhibition, pA2” value in data set [1] came out at 11.29. Besides, the “inhibition of aldosterone production pA2” value in data set [2] stood at 10.390.
The corresponding values for `CNCC(=O)N[C@@H](CCCNC(=N)N)C(=O)N[C@H](C(=O)N[C@@H](Cc1ccc(O)cc1)C(=O)N[C@H](C(=O)N[C@@H](Cc1c[nH]cn1)C(=O)N1CCC[C@H]1C(=O)N[C@@H](C)C(=O)O)C1CCCC1)C(C)C` [Sar^1, Cpg^5, Ala^8 --AII] are 9.42 and 9.933.
The corresponding values for `CNCC(=O)N[C@@H](CCCNC(=N)N)C(=O)N[C@H](C(=O)N[C@@H](Cc1ccc(O)cc1)C(=O)N[C@H](C(=O)N[C@@H](Cc1c[nH]cn1)C(=O)N1CCC[C@H]1C(=O)O[C@@H](C)C(=O)O)C1CCCC1)C(C)C` [Sar^1, Cpg^5, Lac^8 --AII] (H-[Sar]RVY[Gly(cPent)]HP[Lac]-OH) are 11.09 and 9.649.
On to `CC[C@H](C)[C@H](NC(=O)[C@H](Cc1ccc(O)cc1)NC(=O)[C@@H](NC(=O)[C@H](CCCNC(=N)N)NC(=O)CNC)C(C)C)C(=O)N[C@@H](Cc1c[nH]cn1)C(=O)N1CCC[C@H]1C(=O)N[C@H](C(=O)OC)[C@@H](C)CC` [Sar^1, Ile^8 --AII--OMe, reference compound], for which the “inhibition of aldosterone production pA2” value in data set [2] was found to be 8.98.
Take `CC[C@H](C)[C@H](NC(=O)[C@H](Cc1ccc(O)cc1)NC(=O)[C@@H](NC(=O)[C@H](CCCNC(=N)N)NC(=O)CNC)C(C)C)C(=O)N[C@@H](Cc1c[nH]cn1)C(=O)N1CCC[C@H]1C(=O)O[C@@H](C)C(=O)O` [Sar^1, Lac^8 --AII, reference compound]: the “vasoconstriction inhibition, pA2” value in data set [1] is 11.02. For the same molecule, the “inhibition of aldosterone production pA2” value in data set [2] was 9.649.
For `CCOC(=O)[C@H](C)OC(=O)[C@@H]1CCCN1C(=O)[C@H](Cc1c[nH]cn1)NC(=O)[C@@H](NC(=O)[C@H](Cc1ccc(O)cc1)NC(=O)[C@@H](NC(=O)[C@H](CCCNC(=N)N)NC(=O)CNC)C(C)C)[C@@H](C)CC` [Sar^1, Lac^8 --AII--OEt, reference compound], the “inhibition of aldosterone production pA2” value in data set [2] is given as 9.27.
For `CNCC(=O)N[C@@H](CCCN=C(N)N)C(=O)N[C@H](C(=O)N[C@@H](Cc1ccc(O)cc1)C(=O)N[C@H](C(=O)N[C@@H](Cc1cnc[nH]1)C(=O)N1CCC[C@H]1C(=O)N[C@@H](C)C(=O)O)C(C)C)C(C)C` [Sar^1, Val^5, Ala^8 --AII, Saralasin, reference compound], the “vasoconstriction inhibition, pA2” value in data set [1] (AII-induced vasoconstriction, isolated rabbit aorta, pA2) was found to be 11.10. In data set [2] (in vitro, pA2), the “inhibition of aldosterone production pA2” value is recorded as 9.634.
Take Sar^1, HMV^8 --AII [reference compound]: the “inhibition of aldosterone production pA2” value in data set [2] (in vitro, pA2) is listed as 10.589.
On to [Sar^1, Thr^8 ]-AII, for which the “aldosterone release inhibiting effect” value in data set [5] is “no aldosterone release inhibiting effect”. In addition, in data set [6], the agonistic activity entry is “small”.
